In data set [1] the test system is Schistosoma mansoni. In words: Antischistosomal activity against Schistosoma mansoni couples assessed as inhibition of eggs production at 100 uM measured upto 72 hrs by bright field microscopy. The format is functional. Also noted: scale not given: the % may be the effect or the level left.
Data set [2] relates to Schistosoma mansoni. In words: Antischistosomal activity against Schistosoma mansoni couples assessed as decrease in pairing stability at 5 uM measured upto 72 hrs by bright field microscopy. Type of data set: functional. The arrangement: scale not given: the % may be the effect or the level left.
The test system of data set [3] is Schistosoma mansoni. In words: Antischistosomal activity against Schistosoma mansoni couples assessed as pairing instability at 100 uM measured upto 72 hrs by bright field microscopy. The format is functional.
The test system of data set [4] is Schistosoma mansoni. Briefly: Antischistosomal activity against Schistosoma mansoni couples assessed as decrease in parasite motility at 100 uM measured upto 72 hrs by bright field microscopy. The format is functional. Also noted: scale not given: the % may be the effect or the level left.
The subject of data set [5] is Schistosoma mansoni. In words: Antischistosomal activity against Schistosoma mansoni couples assessed as tegument damage at 100 uM measured upto 72 hrs by bright field microscopy. The format is functional, organism-based.
In data set [6] the test system is Schistosoma mansoni. Briefly: Antischistosomal activity against Schistosoma mansoni couples at 50 uM measured upto 72 hrs by bright field microscopy. The format is functional, organism-based.
Data set [7] concerns Schistosoma mansoni. In words: Antischistosomal activity against Schistosoma mansoni couples at 25 uM measured upto 72 hrs by bright field microscopy. The format is functional, organism-based.
For data set [8], the system named is Schistosoma mansoni. In words: Antischistosomal activity against Schistosoma mansoni couples assessed as worm motility at 100 uM measured after 72 hrs by bright field microscopy. Type of data set: functional.
Data set [9] deals with Schistosoma mansoni. In words: Antischistosomal activity against Schistosoma mansoni couples assessed as worm motility at 100 uM treated for 72 hrs and measured at 144 hrs after drug wash-out by bright field microscopy. Type of data set: functional.
The test system of data set [10] is Schistosoma mansoni. In words: Antischistosomal activity against Schistosoma mansoni couples assessed as worm motility at 100 uM treated for 72 hrs and measured at 192 hrs after drug wash-out by bright field microscopy. Type of data set: functional.
Data set [11] concerns Schistosoma mansoni. Briefly: Antischistosomal activity against Schistosoma mansoni couples assessed as worm motility at 50 uM measured after 72 hrs by bright field microscopy. The format is functional.
Data set [12] has as its system Schistosoma mansoni. In words: Antischistosomal activity against Schistosoma mansoni couples assessed as worm motility at 50 uM treated for 72 hrs and measured at 144 hrs after drug wash-out by bright field microscopy. The format is functional.
In data set [13] the test system is Schistosoma mansoni. Briefly: Antischistosomal activity against Schistosoma mansoni couples assessed as worm motility at 50 uM treated for 72 hrs and measured at 192 hrs after drug wash-out by bright field microscopy. The format is functional.
Data set [14] has as its system Schistosoma mansoni. In words: Antischistosomal activity against Schistosoma mansoni couples assessed as worm motility at 25 uM measured after 72 hrs by bright field microscopy. Type of data set: functional.
Data set [15] concerns Schistosoma mansoni. In words: Antischistosomal activity against Schistosoma mansoni couples assessed as worm motility at 25 uM treated for 72 hrs and measured at 144 hrs after drug wash-out by bright field microscopy. Type of data set: functional.
The test system of data set [16] is Schistosoma mansoni. In words: Antischistosomal activity against Schistosoma mansoni couples assessed as worm motility at 25 uM treated for 72 hrs and measured at 192 hrs after drug wash-out by bright field microscopy. The format is functional.
The subject of data set [17] is Schistosoma mansoni. Briefly: Antischistosomal activity against Schistosoma mansoni couples assessed as reduction in pairing stability at 25 to 100 uM treated for 72 hrs and measured at 144 to 192 hrs after drug wash-out by bright field microscopy. Particulars: dose 25-100 µM. Type of data set: functional, organism-based.
The test system of data set [18] is Schistosoma mansoni. In words: Antischistosomal activity against Schistosoma mansoni infected in mouse assessed as mouse mortality. Type of data set: functional.
Data set [19] relates to Schistosoma mansoni. Briefly: Antischistosomal activity against Schistosoma mansoni infected in mouse assessed as decrease in granuloma formation. Type of data set: functional. Also noted: scale not given: the % may be the effect or the level left.
Data set [20] relates to Schistosoma mansoni. In words: Antischistosomal activity against Schistosoma mansoni couples assessed as decrease in parasite motility at 25 uM measured upto 72 hrs by bright field microscopy. The format is functional. Also noted: scale not given: the % may be the effect or the level left.
The test system of data set [21] is Schistosoma mansoni. Briefly: Antischistosomal activity against Schistosoma mansoni couples assessed as decrease in parasite vitality at 10 uM measured upto 72 hrs by bright field microscopy. The arrangement: scale not given: the % may be the effect or the level left. Type of data set: functional.
Data set [22] deals with Schistosoma mansoni. In words: Antischistosomal activity against Schistosoma mansoni couples assessed as couple separation at 10 uM measured upto 72 hrs by bright field microscopy. Type of data set: functional.
The test system of a further data set is HepG2. In words: Cytotoxicity against human HepG2 cells assessed as reduction in cell viability upto 100 uM by WST-1 assay. Particulars: hepg2, 100 µM. The format is toxicity, cell-based. Background: Tetrazolium assays rely on reduction of a dye to a coloured formazan, in cell work by metabolically active cells.
Another data set deals with LS174T. In words: Cytotoxicity against human LS174T cells assessed as reduction in cell vaibility upto 100 uM by WST-1 assay. Type of data set: toxicity, cell-based.

Active and inactive are the calls of the source. No cut-off for these calls is given here.

Take `CCN(CC)C(=S)SCCN1CCCCC1`: the Activity in the data set on Schistosoma mansoni [1] is recorded as greater than 80%; in the data set on Schistosoma mansoni [2], 100%; in the data set with Schistosoma mansoni [3], 100%.
As to `CCN(CC)C(=S)SCc1ccc(S(C)(=O)=O)cc1`, the Activity in the data set on Schistosoma mansoni [4] is on record as roughly 60%. Further, the result in the data set on Schistosoma mansoni [5] and in the data set on Schistosoma mansoni [6] was Active. Further, in the data set on Schistosoma mansoni [7], the result was inactive.
For the compound `CCN(CC)C(=S)SSC(=S)N(CC)CC` [DISULFIRAM], the Activity with Schistosoma mansoni [8] is 56%; in the data set with Schistosoma mansoni [9], 71%; with Schistosoma mansoni [10] it was 76%; with Schistosoma mansoni [11], 62%; in the data set with Schistosoma mansoni [12], 75%; in the data set on Schistosoma mansoni [13] it was 84%. The Activity in the data set with Schistosoma mansoni [14] is recorded as 69%; with Schistosoma mansoni [15], 73%; with Schistosoma mansoni [16] it was 67%; in the data set with Schistosoma mansoni [18] it was 60%; in the data set on Schistosoma mansoni [19], 80%. Besides, the result with Schistosoma mansoni [17] was inactive.
For `CCN(CC)C(=S)SCC1CCCCC1`, the Activity in the data set with Schistosoma mansoni [20] is 35%; with Schistosoma mansoni [21], 90%; in the data set with Schistosoma mansoni [22], 60%; in the data set on HepG2, “Non-Toxic”; with LS174T it was “Non-Toxic”.
